Here are results for ten compounds from ChEMBL document CHEMBL1201862, “PubChem BioAssay data set” (2004).

The structures appear in SMILES notation.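 How tested: cells in 96-well plates exposed to compound for 48 hours at five concentrations. At the GI50, growth is halved.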 The source made the active and inactive calls. Cut-off read from the data, not from the text of the source: active = GI50 up to about 1.1 µM and inactive = higher.

Among the test systems are ACHN; CCRF-CEM; COLO 205; EKVX; HOP-92; KM12; M14; MCF7; NCI-H522; OVCAR-4; OVCAR-8; PC-3; RXF 393; SF-268; SF-539; SNB-75; SR; T47D; U-251; UACC-62.
Common to all, as to assay: NCI tumour cell line growth inhibition, 48 h

On to `CC(=O)Nc1ccc(S(=O)(=O)N=S(C)C)cc1`, for which the GI50 in the test with ACHN, in the test on CCRF-CEM, with COLO 205, with EKVX, in the test on HOP-92 and with KM12 was > 100 µM (inactive) throughout. The GI50 in the test with M14, in the test on MCF7, in the test with NCI-H522, in the test with OVCAR-4, with OVCAR-8 and in the test on PC-3 was > 100 µM (inactive) in each case. For the same compound, the GI50 in the test with RXF 393, with SF-268, in the test on SF-539, in the test on SNB-75, in the test on SR and in the test with T47D was > 100 µM (inactive) each time. In addition, the GI50 in the test with U-251 and in the test with UACC-62 was > 100 µM (inactive) throughout.

Take `Cc1ccc(N2CN3OC(=O)N(c4ccccc4)[C@@]3(c3ccccc3)C2)cc1`: the GI50 was 39.4 µM (inactive) in the test with ACHN; 34.4 µM (inactive) in the test on CCRF-CEM; 36.1 µM (inactive) in the test with COLO 205; 45.7 µM (inactive) in the test on EKVX; 16.9 µM (inactive) with HOP-92; 33.9 µM (inactive) in the test on KM12. Also, the GI50 is 65.5 µM (inactive) in the test on M14; 33.7 µM (inactive) with MCF7; 10.1 µM (inactive) with NCI-H522; 34.2 µM (inactive) in the test on OVCAR-4; 57 µM (inactive) in the test on OVCAR-8; 34.2 µM (inactive) in the test with PC-3. The GI50 is 25.1 µM (inactive) in the test on RXF 393; 50.7 µM (inactive) with SF-268; 29.4 µM (inactive) in the test with SF-539; 36.6 µM (inactive) in the test with SNB-75; 16 µM (inactive) in the test with SR; 14.2 µM (inactive) in the test on T47D. Moreover, the GI50 in the test on U-251 is 30.5 µM (inactive); in the test with UACC-62, 21.2 µM (inactive).

For `O=C(CCCl)NN=C1NCCCN1`, the GI50 in the test on ACHN, in the test on CCRF-CEM, in the test on COLO 205, in the test on EKVX, in the test on HOP-92 and in the test on KM12 was > 100 µM (inactive) each time. Further, the GI50 with M14, in the test with MCF7, with NCI-H522, in the test with OVCAR-4, in the test on OVCAR-8 and with PC-3 was > 100 µM (inactive) in each case. The GI50 with RXF 393, with SF-268, in the test on SF-539, in the test on SNB-75, with SR and in the test with T47D was > 100 µM (inactive) each time. Also, the GI50 in the test on U-251 and in the test on UACC-62 was > 100 µM (inactive) in each case.

Take `O=C1C(=O)c2c(oc(=O)c3ccccc23)-c2ccccc21`: the GI50 was > 25 µM (inactive) with ACHN; > 25 µM (inactive) in the test on CCRF-CEM; > 25 µM (inactive) in the test on COLO 205; > 25 µM (inactive) with EKVX; 15.3 µM (inactive) with HOP-92; > 25 µM (inactive) in the test with KM12. For the same compound, the GI50 is > 25 µM (inactive) in the test with M14; 10.9 µM (inactive) with MCF7; 21.2 µM (inactive) with NCI-H522; 6.5 µM (inactive) in the test on OVCAR-4; 16.4 µM (inactive) in the test with OVCAR-8; > 25 µM (inactive) in the test with PC-3. In addition, the GI50 with RXF 393 was > 25 µM (inactive); in the test with SF-268 it was > 25 µM (inactive); with SF-539 it was > 25 µM (inactive); in the test on SNB-75, 16.6 µM (inactive); in the test with SR it was > 25 µM (inactive); in the test on T47D it was > 25 µM (inactive). The GI50 in the test with U-251 and in the test with UACC-62 was > 25 µM (inactive) throughout.

As for `Cc1ccc2c(c1C)C(=O)/C(=C/c1ccccc1C(=O)O)C2`, the GI50 is > 100 µM (inactive) in the test on ACHN; 76.9 µM (inactive) in the test on CCRF-CEM; > 100 µM (inactive) with COLO 205; > 100 µM (inactive) in the test with EKVX; > 100 µM (inactive) in the test with HOP-92; > 100 µM (inactive) in the test with KM12. In addition, the GI50 in the test with M14, in the test on MCF7, with NCI-H522, in the test on OVCAR-4, in the test on OVCAR-8 and with PC-3 was > 100 µM (inactive) in each case. Further, the GI50 in the test with RXF 393, with SF-268, in the test with SF-539, with SNB-75, in the test on SR and in the test on T47D was > 100 µM (inactive) each time. Also, the GI50 in the test with U-251 and with UACC-62 was > 100 µM (inactive) in each case.

For the compound `COC(=O)[C@]12CC[C@H]3CN(C(=O)OCc4ccccc4)[C@H]([C@H]31)[C@H](c1ccccc1)N2`, the GI50 with ACHN was 92 µM (inactive); in the test with CCRF-CEM it was 41.3 µM (inactive); in the test on COLO 205 it was 92.9 µM (inactive); in the test with EKVX, 53.5 µM (inactive); with HOP-92 it was 72.3 µM (inactive); in the test on KM12 it was 72.6 µM (inactive). The GI50 in the test with M14 was 70 µM (inactive); with MCF7 it was 67.6 µM (inactive); with NCI-H522, 52.1 µM (inactive); in the test on OVCAR-4, 64.7 µM (inactive); in the test with OVCAR-8 it was 78.9 µM (inactive); in the test with PC-3, 43.2 µM (inactive). The GI50 in the test with RXF 393 was 59.6 µM (inactive); in the test on SF-268, > 100 µM (inactive); with SF-539, > 100 µM (inactive); in the test on SNB-75, > 100 µM (inactive); in the test on SR, 42.2 µM (inactive); in the test on T47D it was 34.3 µM (inactive). Also, the figures for the GI50 with U-251 and in the test on UACC-62 were > 100 µM (inactive) and 55 µM (inactive), respectively.

In the case of `CC(C)N(C(=O)C12C3(C(=O)OC(C)(C)C)C4C5(C#N)C3C1(C(=O)OC(C)(C)C)C5C42C(=O)OC(C)(C)C)C(C)C` (stereo not given), the GI50 in the test on ACHN was > 100 µM (inactive); in the test with CCRF-CEM, 10.9 µM (inactive); with COLO 205, 21.5 µM (inactive); in the test with EKVX, 53 µM (inactive); with HOP-92 it was 8.32 µM (inactive); with KM12 it was > 100 µM (inactive). The GI50 with M14 was 59.6 µM (inactive); in the test on MCF7, 14.4 µM (inactive); with NCI-H522 it was 35.3 µM (inactive); in the test with OVCAR-4, 71.6 µM (inactive); with OVCAR-8 it was > 100 µM (inactive); in the test on PC-3, 51.1 µM (inactive). For the same compound, the GI50 with RXF 393 was 12.9 µM (inactive); in the test on SF-268, > 100 µM (inactive); with SF-539, > 100 µM (inactive); in the test with SNB-75, 0.149 µM (active); in the test with SR, 21.7 µM (inactive); in the test with T47D it was 31.9 µM (inactive). In addition, the GI50 was 83.9 µM (inactive) in the test with U-251 and 40.6 µM (inactive) with UACC-62.

On to `CC(C)=CCC/C(C)=C/CC/C(C)=C/CC(CO)N(C)CC/C=C(\C)CCC=C(C)C` (stereo not given), for which the GI50 with ACHN was 11.6 µM (inactive); in the test on CCRF-CEM, 3.03 µM (inactive); in the test with COLO 205, 2.42 µM (inactive); in the test on EKVX it was 10.4 µM (inactive); in the test with HOP-92, 2.7 µM (inactive); in the test on KM12, 3.94 µM (inactive). Besides, the GI50 is 1.79 µM (inactive) in the test with M14; 2.11 µM (inactive) in the test with MCF7; 2.09 µM (inactive) in the test with NCI-H522; 8.97 µM (inactive) in the test with OVCAR-4; 7 µM (inactive) in the test on OVCAR-8; 7.96 µM (inactive) in the test with PC-3. Besides, the GI50 in the test with RXF 393 is 4.82 µM (inactive); with SF-268 it was 13.3 µM (inactive); in the test on SF-539, 3.06 µM (inactive); in the test on SNB-75, 12 µM (inactive); with SR, 2.17 µM (inactive); in the test on T47D, 3.64 µM (inactive). Further, the GI50 with U-251 is 3.56 µM (inactive); in the test with UACC-62 it was 16.1 µM (inactive).

For the compound `CC(C)/C(=N\[N+](C)(C)C)c1ccccc1`, the GI50 was > 100 µM (inactive) in the test on ACHN; > 100 µM (inactive) with CCRF-CEM; > 100 µM (inactive) in the test with COLO 205; > 100 µM (inactive) with EKVX; 69.3 µM (inactive) in the test on HOP-92; > 100 µM (inactive) with KM12. Also, the GI50 in the test with M14, with MCF7, in the test with NCI-H522, in the test with OVCAR-4, in the test with OVCAR-8 and in the test on PC-3 was > 100 µM (inactive) throughout. In addition, the GI50 with RXF 393, in the test with SF-268, with SF-539, with SNB-75, in the test on SR and with T47D was > 100 µM (inactive) throughout. Further, the GI50 in the test on U-251 and in the test with UACC-62 was > 100 µM (inactive) in each case.

For the compound `NC(=O)c1[nH]nc(C2OC(CO)C(O)C2O)c1O` (stereo not given), the GI50 was 0.5 µM (active) with ACHN; 0.507 µM (active) in the test with CCRF-CEM; 16 µM (inactive) with COLO 205; 52.6 µM (inactive) in the test on EKVX; 30.5 µM (inactive) in the test with HOP-92; 10.4 µM (inactive) in the test on KM12. Also, the GI50 was 95.3 µM (inactive) in the test on M14; 1.79 µM (inactive) in the test on MCF7; 37.2 µM (inactive) in the test with NCI-H522; 24.7 µM (inactive) with OVCAR-4; 0.5 µM (active) in the test on OVCAR-8; 3.02 µM (inactive) in the test on PC-3. For the same compound, the GI50 with RXF 393 is 8.99 µM (inactive); in the test with SF-268 it was 4.57 µM (inactive); in the test with SF-539, 16.9 µM (inactive); in the test with SNB-75 it was 101 µM (inactive); in the test on SR, 0.5 µM (active); in the test with T47D it was 5.55 µM (inactive). Besides, the GI50 is 1.38 µM (inactive) with U-251 and 4.38 µM (inactive) with UACC-62.
